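Assay format: 96-well plates, 48-hour exposure. GI50: concentration for 50% inhibition of growth.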 Active and inactive are the calls of the source. Rule as the data show it: active = GI50 up to about 1.1 µM and inactive = higher.
How the values were obtained:
Experiment in all cases: inhibition of tumour cell growth, NCI panel, 48 h
SN12C = system: SN12C
HL-60 = system: HL-60
HCT-116 = system: HCT-116
OVCAR-5 = system: OVCAR-5
NCI-H460 = system: NCI-H460
EKVX = system: EKVX
MCF7 = system: MCF7
SNB-75 = system: SNB-75
LOX IMVI = system: LOX IMVI
K562 = system: K562
A549 = system: A549
UO-31 = system: UO-31
MOLT-4 = system: MOLT-4
A498 = system: A498
HCC 2998 = system: HCC 2998
MDA-N = system: MDA-N
KM12 = system: KM12
SK-OV-3 = system: SK-OV-3
DU-145 = system: DU-145
SF-295 = system: SF-295
OVCAR-3 = system: OVCAR-3
NCI/ADR-RES = system: NCI/ADR-RES
T47D = system: T47D
NCI-H23 = system: NCI-H23
NCI-H226 = system: NCI-H226
SK-MEL-28 = system: SK-MEL-28
SK-MEL-5 = system: SK-MEL-5
MDA-MB-231 = system: MDA-MB-231
OVCAR-8 = system: OVCAR-8
MDA-MB-435 = system: MDA-MB-435
BT-549 = system: BT-549
HT-29 = system: HT-29
UACC-62 = system: UACC-62
Hs-578T = system: Hs-578T
HOP-62 = system: HOP-62
SK-MEL-2 = system: SK-MEL-2
NCI-H522 = system: NCI-H522
ACHN = system: ACHN
UACC-257 = system: UACC-257
SF-539 = system: SF-539
SNB-19 = system: SNB-19
M14 = system: M14
CAKI-1 = system: CAKI-1
Malme-3M = system: Malme-3M
COLO 205 = system: COLO 205
U-251 = system: U-251
SF-268 = system: SF-268
786-0 = system: 786-0
RPMI-8226 = system: RPMI-8226
SR = system: SR
OVCAR-4 = system: OVCAR-4
PC-3 = system: PC-3
RXF 393 = system: RXF 393
HOP-92 = system: HOP-92
HCT-15 = system: HCT-15
TK-10 = system: TK-10
SW-620 = system: SW-620
IGROV-1 = system: IGROV-1
CCRF-CEM = system: CCRF-CEM

## CCCC(=O)NC(Nc1ccc(F)cc1)(C(F)(F)F)C(F)(F)F
SN12C
  GI50: > 100 µM (inactive)
HL-60
  GI50: 1.75 µM (inactive)
HCT-116
  GI50: 19.8 µM (inactive)
OVCAR-5
  GI50: > 100 µM (inactive)
NCI-H460
  GI50: 56.5 µM (inactive)
EKVX
  GI50: > 100 µM (inactive)
MCF7
  GI50: > 37.7 µM (inactive)
SNB-75
  GI50: > 100 µM (inactive)
LOX IMVI
  GI50: 0.404 µM (active)
K562
  GI50: 0.1 µM (active)
A549
  GI50: 16.9 µM (inactive)
UO-31
  GI50: 9.48 µM (inactive)
MOLT-4
  GI50: 7.98 µM (inactive)
A498
  GI50: > 100 µM (inactive)
HCC 2998
  GI50: 98.6 µM (inactive)
MDA-N
  GI50: > 40.7 µM (inactive)
KM12
  GI50: 2.49 µM (inactive)
SK-OV-3
  GI50: > 100 µM (inactive)
DU-145
  GI50: 33.2 µM (inactive)
SF-295
  GI50: 24.5 µM (inactive)
OVCAR-3
  GI50: > 100 µM (inactive)
NCI/ADR-RES
  GI50: 9.31 µM (inactive)
T47D
  GI50: 7.14 µM (inactive)
NCI-H23
  GI50: > 43.4 µM (inactive)
NCI-H226
  GI50: > 100 µM (inactive)
SK-MEL-28
  GI50: > 75.2 µM (inactive)
SK-MEL-5
  GI50: 1.03 µM (active)
MDA-MB-231
  GI50: > 100 µM (inactive)
OVCAR-8
  GI50: 24.1 µM (inactive)
MDA-MB-435
  GI50: 1.25 µM (inactive)
BT-549
  GI50: 80 µM (inactive)
HT-29
  GI50: 64.3 µM (inactive)
UACC-62
  GI50: 1.09 µM (active)
Hs-578T
  GI50: > 55 µM (inactive)
HOP-62
  GI50: > 100 µM (inactive)
SK-MEL-2
  GI50: 2.25 µM (inactive)
NCI-H522
  GI50: 27.4 µM (inactive)
ACHN
  GI50: 2.14 µM (inactive)
UACC-257
  GI50: 8.2 µM (inactive)
SF-539
  GI50: > 79.4 µM (inactive)
SNB-19
  GI50: > 100 µM (inactive)
M14
  GI50: 0.387 µM (active)
CAKI-1
  GI50: > 100 µM (inactive)
Malme-3M
  GI50: > 100 µM (inactive)
COLO 205
  GI50: 7.1 µM (inactive)
U-251
  GI50: > 100 µM (inactive)
SF-268
  GI50: > 100 µM (inactive)
786-0
  GI50: > 100 µM (inactive)
RPMI-8226
  GI50: 32.2 µM (inactive)
SR
  GI50: > 100 µM (inactive)
OVCAR-4
  GI50: 12.6 µM (inactive)
PC-3
  GI50: 19.1 µM (inactive)
RXF 393
  GI50: > 100 µM (inactive)
HOP-92
  GI50: > 100 µM (inactive)
HCT-15
  GI50: 5.79 µM
TK-10
  GI50: > 43.7 µM (inactive)
SW-620
  GI50: 2.84 µM (inactive)

## CC1=NN(c2ccccc2)C(=O)/C1=C\c1c(C)[nH]n(-c2ccccc2)c1=O
SN12C
  GI50: > 100 µM (inactive)
HL-60
  GI50: > 100 µM (inactive)
HCT-116
  GI50: > 100 µM (inactive)
IGROV-1
  GI50: > 100 µM (inactive)
OVCAR-5
  GI50: > 100 µM (inactive)
NCI-H460
  GI50: > 100 µM (inactive)
EKVX
  GI50: > 100 µM (inactive)
MCF7
  GI50: > 100 µM (inactive)
SNB-75
  GI50: > 100 µM (inactive)
K562
  GI50: 38.8 µM (inactive)
A549
  GI50: > 100 µM (inactive)
UO-31
  GI50: > 100 µM (inactive)
MOLT-4
  GI50: > 100 µM (inactive)
A498
  GI50: > 100 µM (inactive)
HCC 2998
  GI50: > 100 µM (inactive)
MDA-N
  GI50: > 100 µM (inactive)
KM12
  GI50: > 100 µM (inactive)
SK-OV-3
  GI50: > 100 µM (inactive)
DU-145
  GI50: > 100 µM (inactive)
SF-295
  GI50: > 100 µM (inactive)
OVCAR-3
  GI50: 54.5 µM (inactive)
NCI/ADR-RES
  GI50: > 100 µM (inactive)
T47D
  GI50: 36.1 µM (inactive)
NCI-H23
  GI50: > 100 µM (inactive)
NCI-H226
  GI50: > 100 µM (inactive)
SK-MEL-28
  GI50: > 100 µM (inactive)
SK-MEL-5
  GI50: > 100 µM (inactive)
MDA-MB-231
  GI50: > 100 µM (inactive)
OVCAR-8
  GI50: > 100 µM (inactive)
MDA-MB-435
  GI50: > 100 µM (inactive)
BT-549
  GI50: > 100 µM (inactive)
CCRF-CEM
  GI50: 75.9 µM (inactive)
HT-29
  GI50: 81.1 µM (inactive)
UACC-62
  GI50: > 100 µM (inactive)
Hs-578T
  GI50: > 100 µM (inactive)
HOP-62
  GI50: > 100 µM (inactive)
SK-MEL-2
  GI50: > 100 µM (inactive)
NCI-H522
  GI50: 53.7 µM (inactive)
ACHN
  GI50: > 100 µM (inactive)
UACC-257
  GI50: > 100 µM (inactive)
SF-539
  GI50: > 100 µM (inactive)
SNB-19
  GI50: > 100 µM (inactive)
M14
  GI50: > 100 µM (inactive)
CAKI-1
  GI50: > 100 µM (inactive)
Malme-3M
  GI50: 95.1 µM (inactive)
COLO 205
  GI50: > 100 µM (inactive)
U-251
  GI50: > 100 µM (inactive)
SF-268
  GI50: > 100 µM (inactive)
786-0
  GI50: > 100 µM (inactive)
RPMI-8226
  GI50: 28.4 µM (inactive)
SR
  GI50: > 100 µM (inactive)
OVCAR-4
  GI50: > 100 µM (inactive)
PC-3
  GI50: 77.4 µM (inactive)
RXF 393
  GI50: 35.1 µM (inactive)
HOP-92
  GI50: 27.1 µM (inactive)
HCT-15
  GI50: > 100 µM
TK-10
  GI50: > 100 µM (inactive)
SW-620
  GI50: 92.7 µM (inactive)

## CCCCCCCCCCCCCCCCNc1nc(=O)n(C2CC(O)C(CO)O2)cc1F (stereo not drawn)
SN12C
  GI50: 12.5 µM (inactive)
HL-60
  GI50: 5.47 µM (inactive)
HCT-116
  GI50: 8.26 µM (inactive)
IGROV-1
  GI50: 11.6 µM (inactive)
OVCAR-5
  GI50: 18.2 µM (inactive)
NCI-H460
  GI50: 10.7 µM (inactive)
EKVX
  GI50: 14.6 µM (inactive)
MCF7
  GI50: 1.33 µM (inactive)
SNB-75
  GI50: 5.06 µM (inactive)
LOX IMVI
  GI50: 10.5 µM (inactive)
A549
  GI50: 0.94 µM (active)
UO-31
  GI50: 1.4 µM (inactive)
MOLT-4
  GI50: 4.72 µM (inactive)
A498
  GI50: > 10 µM (inactive)
HCC 2998
  GI50: 0.071 µM (active)
MDA-N
  GI50: 16 µM (inactive)
KM12
  GI50: 13.8 µM (inactive)
SK-OV-3
  GI50: 13.5 µM (inactive)
DU-145
  GI50: 10 µM (inactive)
SF-295
  GI50: 16.5 µM (inactive)
OVCAR-3
  GI50: 13.9 µM (inactive)
NCI/ADR-RES
  GI50: 2.86 µM (inactive)
T47D
  GI50: 11.7 µM (inactive)
NCI-H23
  GI50: 4.85 µM (inactive)
NCI-H226
  GI50: 1.28 µM (inactive)
SK-MEL-28
  GI50: 12.7 µM (inactive)
SK-MEL-5
  GI50: 11.6 µM (inactive)
MDA-MB-231
  GI50: 21.7 µM (inactive)
OVCAR-8
  GI50: 1.82 µM (inactive)
MDA-MB-435
  GI50: 12.2 µM (inactive)
BT-549
  GI50: 16.3 µM (inactive)
CCRF-CEM
  GI50: > 10 µM (inactive)
HT-29
  GI50: 9.84 µM (inactive)
UACC-62
  GI50: 10.7 µM (inactive)
Hs-578T
  GI50: 17.4 µM (inactive)
HOP-62
  GI50: 7.52 µM (inactive)
SK-MEL-2
  GI50: 19.6 µM (inactive)
NCI-H522
  GI50: 5.28 µM (inactive)
ACHN
  GI50: 0.259 µM (active)
UACC-257
  GI50: 16.7 µM (inactive)
SF-539
  GI50: 0.284 µM (active)
SNB-19
  GI50: 13.7 µM (inactive)
M14
  GI50: 8.57 µM (inactive)
CAKI-1
  GI50: 2.1 µM (inactive)
Malme-3M
  GI50: 10.8 µM (inactive)
COLO 205
  GI50: 12.7 µM (inactive)
U-251
  GI50: 11.7 µM (inactive)
SF-268
  GI50: 2.93 µM (inactive)
786-0
  GI50: 2.88 µM (inactive)
RPMI-8226
  GI50: 15.8 µM (inactive)
SR
  GI50: 4.01 µM (inactive)
OVCAR-4
  GI50: 15.7 µM (inactive)
PC-3
  GI50: 3.93 µM (inactive)
RXF 393
  GI50: 13.5 µM (inactive)
HOP-92
  GI50: 10.3 µM (inactive)
HCT-15
  GI50: 0.875 µM
TK-10
  GI50: 11.9 µM (inactive)
SW-620
  GI50: 13 µM (inactive)

— ChEMBL document CHEMBL1201862, “PubChem BioAssay data set” (2004)
